Measured values: patent US11059845B2, “Immune stimulating macrolides” (ISR IMMUNE SYSTEM REGULATION HOLDING AB (PUBL), priority 2017, dated 2021)

Tested on: peripheral blood mononuclear cells (PBMC)
Test: Marker expression on PBMC by flow cytometry
Assay type: cell-based, human
Settings: 24 h
Description: Human peripheral blood mononuclear cells (PBMCs) were purified from healthy donors with Ficoll-Paque density centrifugation. Cells were cultured in complete RPMI-1640 media (Invitrogen) supplemented with 25 mM HEPES, L-glutamine, Sodium pyruvate (Sigma), 10% fetal bovine serum, 100 μg/mL penicillin and 100 μg/mL streptomycin (Hyclone) for 24-72 hours in 37° C., 5% CO2 and stimulated with and increasing concentrations of compound 1 and 2. Cells were then washed in PBS and stained with monoclonal antibodies specific for cell surface markers (BD Pharmingen) and analysed with flow cytomtetry using a BD FACS Canto II flow cytometer. All samples were tested in duplicates.
Human peripheral blood mononuclear cells (PBMCs) were purified from healthy donors with Ficoll-Paque density centrifugation. Cells were cultured in complete RPMI-1640 medium (Invitrogen) supplemented with 25 mM HEPES, L-glutamine, Sodium pyruvate (Sigma), 10% fetal bovine serum, 100 μg/mL penicillin and 100 μg/mL streptomycin (Hyclone). Cells were stimulated for 24 h (study 1-4) or 48 h to 1 week (study 5) in 37° C., 5% CO2 with increasing concentrations of compound 1 and 2 in tissue culture plates. The cells were removed from the plate, washed in PBS and analysed for expression of cell specific surface markers and MHC class I with flow cytometry using monoclonal antibodies from BD Pharmingen and a FACS Canto II flow cytometer.

CC[C@H]1OC(=O)[C@H](C)[C@@H](O[C@H]2C[C@@H](N(C)C)[C@H](O)[C@@H](C)O2)[C@H](C)[C@@H](O)[C@](C)(O)C[C@@H](C)CN(C)[C@H](C)[C@@H](O)[C@]1(C)O [Compound 1]
upregulated: activation marker CD69 on B cells (1 μM) | activation marker CD69 on CD4+ T cells (1 μM)
upregulation: MHC class I (HLA-ABC) on B-cells | MHC class I (HLA-ABC) on T-cells | MHC class II (HLA-DR) on monocytes | co-stimulatory molecule CD80 on monocytes
